Measured values: patent US6562829B1, “Treatment of hepatic cirrhosis” (Hadasit Medical Research Services & Development Co., Ltd., priority 1997, dated 2003)
Read-outs that look alike come from different tables or passages of the source.

Legend:
collagen type I = settings: as demonstrated in U.S. Pat. No. 5,449,678; cited from earlier work
[1] = tested on: mild dimethylnitrosamine-induced fibrosis; assay: Mild dimethylnitrosamine-induced fibrosis in rat liver (Example 2); assay type: in vivo; settings: 4 weeks
Procedure: The specific experimental method used was similar to that of Example 1, except that the dimethylnitrosamine-treated rats were only given 0.25% dimethylnitrosamine in saline, a much lower dose than that given in Example 1 above. Also, the duration of treatment was longer before the rats were sacrificed: 4 weeks as opposed to 3 weeks in Example 1.
The expression of the collagen α1(I) gene was measured as described in Example 1 above. For hydroxyproline analysis, liver samples were hydrolyzed for 22 hours at 110° C. with 6 N HCl. Nitrogen was determined after Kjeldahl digestion by the spectrophotometric procedure using an autoanalyzer as described by Krom [M. D. Krom, Analyst, 105:305-16, 1980]. The collagen-unique amino acid hydroxyproline from the same hydrolysate was determined by amino acid analysis (Biotronik LC 5000, Germany) after post-column derivatization on a cation exchange column (BTC 2710, Biotronik). The results are expressed as the percentage of collagen in total liver proteins.

stellate cells [2] = assay: Smooth muscle actin in stellate cells, TAA prevention experiment (Example 5); assay type: in vivo, rat; settings: prophylactic administration of Halofuginone with TAA
Source text: (§1) Liver cirrhosis was induced with TAA as previously described. […] These cells are located in the subendothelial space, between the apical membrane of hepatocytes and the ablumenal side of the sinusoidal endothelial cells. The intimate association between the stellate cells and the neighboring cell types facilitates intercellular transport and paracrine stimulation by soluble mediators. In injured liver, these cells acquire features of myofibroblasts and express smooth muscle cytoskeletal markers such as smooth muscle actin. […] The experimental method was as follows.
(§2) Rats were treated with TAA alone or TAA with Halofuginone as previously described in Example 4 for the use of Halofuginone as both a prophylactic treatment and a treatment for existing liver cirrhosis. Tissue samples were also prepared as previously described, except that rather than undergoing staining for collagen, the samples were incubated with smooth muscle actin antibodies in a 1:1000 dilution, with detection performed by the Histomouse SP kit according to the instructions of the manufacturer (Zymed Laboratories Inc., San Francisco, Calif., USA).

[3] = tested on: TAA-induced liver cirrhosis; assay: Treatment of existing TAA-induced liver cirrhosis in rats (Example 4); assay type: in vivo, rat
Procedure: (§3) Male Sprague-Dawley rats were divided into three groups. Two groups were injected intraperitoneally with TAA twice weekly for 12 weeks, at a dose of 200 mg/kg body (Muller, A. et al., Exp. Pathol., 34:229-236, 1988; Hori, N. et al., Dig. Dis. Sci., 38:2195-2202, 1993). […] The other group of rats, control rats, was injected with saline. One group of TAA-treated rats and one control group were fed Halofuginone in the diet at a dose of 5 ppm.
(§4) Liver samples were taken for histological examination. Briefly, the tissue samples were collected into phosphate-buffered saline (PBS) and fixed overnight in 4% paraformaldehyde in PBS at 4° C. Serial 5 μm sections were prepared after the samples had been dehydrated in graded ethanol solutions, cleared in chloroform and embedded in Paraplast. Differential staining of collagenous and non-collagenous proteins was performed with 0.1% Sirius red and 0.1% fast green as a counter-stain in picric acid. This procedure stains collagen red [Gascon-Barre, M., et al., J. Histochem. Cytochem., 37:377-381, 1989].
In addition, the livers were scored in a double-blind evaluation, on a scale of 0-4, for the appearance of fibrotic tissue. […]

stellate cells [4] = assay: Smooth muscle actin in stellate cells, TAA treatment experiment (Example 5); assay type: in vivo, rat; settings: Halofuginone administered after induction of liver cirrhosis by TAA
Source text: as §1, §2

[5] = tested on: TAA-induced liver cirrhosis; assay type: in vivo, rat
Procedure: as §3
For this experiment, rats in group 1 received only Halofuginone (n=4); rats in group 2 received TAA alone without Halofuginone (n=6); and rats in group 3 received TAA with Halofuginone (n=6). Groups 1and 3 received Halofuginone starting three days before the TAA injections were administered. At the end of the experimental period, the rats were sacrificed and the liver was removed and weighed.
as §4
In addition, the livers were scored in a double-blind evaluation, on a scale of 0-4, for the appearance of fibrotic tissue.

[6] = tested on: bile duct ligation-induced fibrosis; assay type: in vivo, rat
Source text: In addition to dimethylnitrosamine-induced liver fibrosis, a second model of liver fibrosis in rats is available. […] Tox., 15:449-453, 1995]. Thus, the particular advantage of the bile duct ligation model is that any protective treatments must directly protect the liver from the pathological changes induced by fibrosis, rather than indirectly altering the effects of the exogeneous substance which is used to cause liver fibrosis in the animal model. The experimental method was as follows.
Male Wistar rats, weighing 200-250 g, were divided into four experimental groups with 3 rats in each group. […] It should be noted that all animals in the first two groups underwent sham operations which included all steps of the actual surgical procedure, with the exception of the bile duct ligation itself. The third group had bile duct ligation surgery and was not given Halofuginone. The fourth group had bile duct ligation surgery and was given Halofuginone. The actual surgical procedure was essentially similar to that reported in the literature [Kountaras, J. et al., Br. J. Exp. Pathol., 65:305-311, 1984].
All animals were given drinking water ad libitum. Rats which were given Halofuginone were fed Halofuginone in the normal rat diet at a concentration of 5 mg per kg diet weight for one week before surgery and for the duration of the experimental period, which was either 3 or 7 days after the surgical operation. Rats were sacrificed at the end of the experimental period. Both collagen content (through Sirius red staining) and collagen α1(I) gene expression were measured as described above in Example 1. In addition, serum alkaline phosphatase, alanine aminotransferase and aspartate aminotransferase levels were measured […] by a Hitachi Auto-analyzer System of Boerringher-Mannheim.

[7] = tested on: dimethylnitrosamine-induced hepatic fibrosis; assay: Dimethylnitrosamine-induced severe liver fibrosis in rats (Example 1); assay type: in vivo
Procedure: The experimental method was as follows. Male Sprague-Dawley rats were divided into four groups. Two groups were injected intraperitoneally with 1% dimethylnitrosamine in saline for three consecutive days per week for 3 weeks, at a dose of 1 ml/kg body weight. This dosage regimen will induce severe liver fibrosis. The other two groups of rats, control rats, were injected with saline. One group of dimethylnitrosamine-treated rats and one control group were fed Halofuginone in the diet at a dose of 5 mg/kg weight of diet, starting three days before the dimethylnitrosamine injections were administered. At the end of the experimental period, the rats were sacrificed and the liver was removed and weighed.
as §4
Liver samples were then hybridized with a probe for rat collagen α1(I) expression. For hybridization with the genetic probe, the sections were deparafinized in xylene, rehydrated through a graded series of ethanol solutions, rinsed in distilled water for 5 minutes and then incubated in 2×SSC at 70° C. for 30 minutes. The sections were then rinsed in distilled water and treated with pronase, 0.125 mg/ml in 50 mM Tris-HCl, 5 mM EDTA, pH 7.5, for 10 minutes. After digestion, the slides were rinsed with distilled water, post-fixed in 10% formalin in PBS and blocked in 0.2% glycine. After blocking, the slides were rinsed in distilled water, rapidly dehydrated through graded ethanol solutions and air-dried for several hours. Before hybridization, the 1600 bp rat collagen α1(I) insert was cut out from the original plasmid, pUC18, and inserted into the pSafyre plasmid. The sections were then hybridized with this probe after digoxigenin-labeling [M. Pines et al., Matrix Biology, 14:765-71, 1996].

[8] = bile duct ligated rats fed Halofuginone vs bile duct ligation only
[9] = bile duct ligated rats, Halofuginone 5 mg per kg diet

## O=C(CC1NCCC[C@H]1O)Cn1cnc2cc(Br)c(Cl)cc2c1=O (some centres unmarked) [Halofuginone]
Collagen type I
  synthesis of collagen type I in bone chondrocytes in vitro: inhibits
[1]; 0.25% dimethylnitrosamine plus Halofuginone
  increased collagen α1(I) gene expression in liver: abolished
[1]; 0.25% dimethylnitrosamine, Halofuginone in diet
  dimethylnitrosamine-induced increase in liver hydroxyproline concentration: completely inhibited
Stellate cells [2]
  pathological expression of smooth muscle actin by stellate cells: prevented
[3]; Halofuginone given for four weeks after twelve weeks of TAA
  thickening of collagen bundles in liver (Sirius red staining): markedly reduced
[3]; scale of 0-4, group 3, Halofuginone after twelve weeks TAA, TAA alone 2.16±0.7 (group 1) or 3.06±1.7 (group 2)
  average double-blind liver fibrosis score: 1.18±1.6
Stellate cells [4]
  pathological expression of smooth muscle actin by stellate cells: significantly reduced
[5]; Halofuginone plus TAA vs TAA alone (prevention)
  reduction of fibrotic scores for liver: 43%
[5]; rat, in vivo
  effect on body weight: no effect
  effect on spleen weight: no effect
[5]; rats given both TAA (200 mg/kg i.p. twice weekly, 12 weeks) and Halofuginone 5 ppm in diet from three days before TAA
  thickening of collagen bundles in liver (Sirius red staining): markedly reduced
[5]; scale of 0-4, rats given both Halofuginone and TAA (prevention), TAA alone 2.16±0.7
  average double-blind liver fibrosis score: 1.25±0.8
[6]; [8]
  bile duct ligation-induced increase in collagen synthesis: significantly reduced
  bile duct ligation-induced increase in collagen α1(I) gene expression: significantly reduced
[6]; [9]
  serum alanine aminotransferase, higher in rats not given Halofuginone than in rats fed Halofuginone: 56%
  serum alkaline phosphatase in rats not given Halofuginone relative to rats fed Halofuginone: 257%
  serum aspartate aminotransferase, higher in rats not given Halofuginone than in rats fed Halofuginone: 15%
[7]; Halofuginone alone, 5 mg/kg diet, all six rats survived
  toxicity (survival): no toxicity
[7]; rat, in vivo
  liver weight: 11 ± 1.5 g
[7]; rats given 1% dimethylnitrosamine i.p. and Halofuginone 5 mg/kg diet, 3 weeks, compared to dimethylnitrosamine alone
  expression of collagen α1(I) gene in liver (in situ hybridization): marked reduction
[7]; rats given both Halofuginone and dimethylnitrosamine, dimethylnitrosamine alone 4.5 g and 5.0 g
  liver weight: 8.5 ± 1.7 g
[7]; rats given both dimethylnitrosamine and Halofuginone 5 mg/kg diet
  thickening of collagen bundles in liver (Sirius red staining): markedly reduced
[7]; rats given both dimethylnitrosamine and Halofuginone, four of six died with dimethylnitrosamine alone
  rats died by the end of three weeks: one of the six
